The results in this text go back to patent publication US20090312349A1, “ANTI-INFLAMMATORY MEDICAMENTS” (priority 2004, published 2009).

This assay addresses T1, phospho p-38 alpha kinase (Homo sapiens, UniProt Q16539).
T1 construct: purchased Panvera
Kind of assay: P-38 alpha kinase assay (spectrophotometric, pyruvate kinase/lactate dehydrogenase coupled). The class given is biochemical. As for the experimental part: In this assay, the oxidation of NADH was continuously measured spectrophometrically. […] The reaction was initiated by adding ATP. The absorption at 340 nm was monitored continuously for up to 4 hours at 30° C. on Polarstar Optima plate reader (BMG). The kinase activity (reaction rate) was calculated from the slope at the time frame from 1.5 h to 2 h.
For inhibition determinations, test compounds were incubated with the reaction mixture for ˜5 min before adding ATP to start the reaction. […] IC50 values were calculated from a series of % inhibition values determined at a range of concentrations of each inhibitor using Prism to process the data and fit inhibition curves. Generally, the rates obtained at the time frame of 1.5 h to 2 h were used for these calculations.

[1] abbreviates: Table 3, rates at […] to 2 h, read-out: IC50.
[2] abbreviates: Table 5, assay not named, read-out: uM.

Where two headings read alike, the source gives them in different places.

T1 sequence (Q16539 whole entry): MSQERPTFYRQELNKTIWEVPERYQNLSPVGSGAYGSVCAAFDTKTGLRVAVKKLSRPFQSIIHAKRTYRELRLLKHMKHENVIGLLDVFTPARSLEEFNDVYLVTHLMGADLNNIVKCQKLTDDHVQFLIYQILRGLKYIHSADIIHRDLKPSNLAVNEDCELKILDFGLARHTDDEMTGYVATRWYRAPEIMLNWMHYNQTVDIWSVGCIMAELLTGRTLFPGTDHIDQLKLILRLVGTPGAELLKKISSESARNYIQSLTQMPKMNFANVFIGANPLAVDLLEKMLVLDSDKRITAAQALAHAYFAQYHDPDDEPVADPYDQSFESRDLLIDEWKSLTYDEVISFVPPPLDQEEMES

As to `CC(C)(C)c1cc(NC(=O)Nc2cccc(F)c2F)n(-c2ccc(CC(=O)O)cc2)n1` [Example 204, 2-(4-(3-t-butyl-5-(3-(2,3-difluorophenyl)ureido)-1H-pyrazol-1-yl)-phenyl)acetic acid], the IC50 under setting [1] is 0.008 µM.
The same measure, in the same setting: as for `COc1cccc(-n2nc(C(C)(C)C)cc2NC(=O)Nc2ccc(F)cc2)c1` [Example 206, 1-(3-t-butyl-1-(3-methoxyphenyl)-1H-pyrazol-5-yl)-3-(4-fluorophenyl)urea], the figure is 0.013 µM; as for `CC(C)(C)c1cc(NC(=O)Nc2cccc(Cl)c2Cl)n(-c2cccc(C(N)=O)c2)n1` [Example 289, 1-[3-t-butyl-1-(3-carbamoylphenyl)-1H-pyrazol-5-yl]-3-(2,3-dichlorophenyl)urea], 1.3 µM.
Consider `CC(C)(C)c1cc(NC(=O)Nc2cccc(Cl)c2)n(-c2cccc(CO)c2)n1` [Example 303], for which, under setting [2], the IC50 was 0.089 µM.
The same measure, in the same setting: for `COc1cccc(NC(=O)Nc2cc(C(C)(C)C)nn2-c2cccc(CO)c2)c1` [Example 306, 1-{3-t-butyl-1-[3-(hydroxymethyl)phenyl]-1H-pyrazol-5-yl}-3-(3-methoxyphenyl)urea] the value was 0.058 µM; for `CC(C)(C)c1cc(NC(=O)Nc2cccc3ccccc23)n(-c2cccc(CN)c2)n1` [Example 307, 1-(3-t-butyl-1-(3-(aminomethyl)phenyl)-1H-pyrazol-5-yl)-3-(naphthalen-1-yl)urea], 0.049 µM.
For `CNC(=O)Cc1cccc(-n2nc(C(C)(C)C)cc2NC(=O)Nc2cccc(Cl)c2Cl)c1` [Example 310], the IC50 under setting [2] came to 0.13 µM.
For the compound `CCOC(=O)CCc1cccc(-n2nc(-c3ccccc3)cc2NC(=O)Nc2ccc(Cl)cc2)c1` [Example 311, 3-(3-{5-[3-(4-chlorophenyl)-ureido]-3-phenyl-pyrazol-1-yl}-phenyl)-propionic acid ethyl ester], the IC50 under setting [2] stood at 0.182 µM.
On the same count and under the same terms, for `COc1ccc(-n2nc(C(C)(C)C)cc2NC(=O)Nc2cccc(F)c2F)cc1` [Example 312, 1-[3-t-butyl-1-(4-methoxyphenyl)-1H-pyrazol-5-yl]-3-(2,3-difluorophenyl)urea] the value was 0.349 µM; for `CCOC(=O)CCc1cccc(-n2nc(C(C)C)cc2NC(=O)Nc2ccc(Cl)cc2)c1` [Example 313, ethyl 3-(3-(5-(3-(4-chlorophenyl)ureido)-3-isopropyl-1H-pyrazol-1-yl)phenyl)propanoate], 0.25 µM; for `CCOC(=O)c1ccc(-n2nc(C(C)(C)C)cc2NC(=O)Nc2cccc(F)c2F)cc1` [Example 314, ethyl 4-{3-t-butyl-5-[3-(2,3-difluorophenyl)ureido]-1H-pyrazol-1-yl}benzoate], 0.25 µM.
As for `CC(C)(C)c1cc(NC(=O)Nc2cccc(F)c2F)n(-c2ccc(CO)cc2)n1` [Example 315, 1-{3-t-butyl-1-[4-(hydroxymethyl)phenyl]-1H-pyrazol-5-yl}-3-(2,3-difluoro-phenyl)urea], the “% @ concentration, uM” value (Table 5, @ 10 uM) came to 54% @ 10.
As for `CCOC(=O)Cc1ccc(-n2nc(C(C)(C)C)cc2NC(=O)Nc2cccc3ccccc23)cc1` [Example 316, ethyl 2-(4-{3-t-butyl-5-[3-(naphthalen-1-yl)ureido]-1H-pyrazol-1-yl}phenyl)acetate], under setting [2], the IC50 was 0.42 µM.
Consider `CCOC(=O)Cc1ccc(-n2nc(C(C)(C)C)cc2NC(=O)Nc2ccc(Cl)cc2)cc1` [Example 317, ethyl 2-(4-{3-t-butyl-5-[3-(4-chlorophenyl)ureido]-1H-pyrazol-1-yl}phenyl)acetate], for which, under setting [2], the IC50 came out at 0.068 µM.
On the same count and under the same terms, for `CCOC(=O)Cc1ccc(-n2nc(C(C)(C)C)cc2NC(=O)Nc2cccc(Cl)c2Cl)cc1` [Example 318] the value was 0.67 µM; for `CCOC(=O)Cc1cccc(-n2nc(C(C)(C)C)cc2NC(=O)Nc2cccc3ccccc23)c1` [Example 319, ethyl 2-(3-{3-t-butyl-5-[3-(naphthalen-1-yl)ureido]-1H-pyrazol-1-yl}phenyl)acetate], 0.32 µM.
As to `CCOC(=O)Cc1cccc(-n2nc(C(C)(C)C)cc2NC(=O)Nc2ccc(Cl)cc2)c1` [Example 320, ethyl 2-(3-{3-t-butyl-5-[3-(4-chlorophenyl)ureido]-1H-pyrazol-1-yl}phenyl)acetate], the IC50 under setting [2] was 0.79 µM.
Turning to `CCOC(=O)Cc1cccc(-n2nc(C(C)(C)C)cc2NC(=O)Nc2cccc(Cl)c2Cl)c1` [Example 321, ethyl 2-(3-{3-t-butyl-5-[3-(2,3-dichlorophenyl)ureido]-1H-pyrazol-1-yl}phenyl)acetate], the IC50 under setting [2] was 0.52 µM.
Still for that read-out and setting: for `CCOC(=O)C(C)Cc1cccc(-n2nc(C(C)(C)C)cc2NC(=O)Nc2cccc(Cl)c2Cl)c1` (centres unmarked) [Example 322, ethyl 3-(3-{3-t-butyl-5-[3-(2,3-dichlorophenyl)ureido]-1H-pyrazol-1-yl}phenyl)-2-methylpropanoate] the value was 2.02 µM.
In the case of `CC(Cc1cccc(-n2nc(C(C)(C)C)cc2NC(=O)Nc2cccc(Cl)c2Cl)c1)C(=O)O` (centres unmarked) [Example 323, 3-(3-{3-t-butyl-5-[3-(2,3-dichlorophenyl)ureido]-1H-pyrazol-1-yl}-1-phenyl)-2-methylpropanoic acid], the “% @ concentration, uM” value amounted to 9% (Table 5, @ 1 uM) and 51% (Table 5, @ 10 uM).
Consider `CCOC(=O)C(C)Cc1ccc(-n2nc(C(C)(C)C)cc2NC(=O)Nc2cccc3ccccc23)cc1` (centres unmarked) [Example 324, ethyl 3-(4-{3-t-butyl-5-[3-(naphthalen-1-yl)ureido]-1H-pyrazol-1-yl}phenyl)-2-methylpropanoate], for which the “% @ concentration, uM” value (Table 5, @ 10 uM) came to 40% @ 10.
For the compound `CC(Cc1ccc(-n2nc(C(C)(C)C)cc2NC(=O)Nc2cccc3ccccc23)cc1)C(=O)O` (centres unmarked) [Example 325, 3-(4-{3-t-butyl-5-[3-(naphthalen-1-yl)ureido]-1H-pyrazol-1-yl}phenyl)-2-methylpropanoic acid], under “Table 5, @ 10 uM”, the “% @ concentration, uM” value is reported as 54% @ 10.
On the same count and under the same terms, as for `CCOC(=O)C(C)Cc1ccc(-n2nc(C(C)(C)C)cc2NC(=O)Nc2ccc(Cl)cc2)cc1` (centres unmarked) [Example 326, ethyl 3-(4-{3-t-butyl-5-[3-(4-chlorophenyl)ureido]-1H-pyrazol-1-yl}phenyl)-2-methylpropanoate], the figure is 41% @ 10.
Take `CC(Cc1ccc(-n2nc(C(C)(C)C)cc2NC(=O)Nc2ccc(Cl)cc2)cc1)C(=O)O` (centres unmarked) [Example 327, 3-(4-{3-t-butyl-5-[3-(4-chlorophenyl)ureido]-1H-pyrazol-1-yl}phenyl)-2-methylpropanoic acid]: the IC50 under setting [2] was determined as 0.81 µM.
In the case of `CCOC(=O)c1cccc(-n2nc(-c3ccccc3)cc2NC(=O)Nc2cccc3ccccc23)c1` [Example 328, ethyl 3-[5-(3-naphthalen-1-yl-ureido)-3-phenyl-pyrazol-1-yl]benzoate], under “Table 5, @ 10 uM”, the “% @ concentration, uM” value is 68% @ 10.
For `CC(C)(O)c1cccc(-n2nc(-c3ccccc3)cc2NC(=O)Nc2cccc3ccccc23)c1` [Example 329, 1-{1-[3-(2-hydroxypropan-2-yl)phenyl]-3-phenyl-1H-pyrazol-5-yl}-3-(naphthalen-1-yl)urea], the IC50 under setting [2] was 0.25 µM.
For the compound `O=C(Nc1ccc(Cl)cc1)Nc1cc(-c2ccccc2)nn1-c1ccc(CO)cc1` [Example 331, 1-(4-chlorophenyl)-3-{1-[4-(hydroxymethyl)phenyl]-3-phenyl-1H-pyrazol-5-yl}-urea], where the note is “Table 5, @ 10 uM”, the “% @ concentration, uM” value turned out to be 71% @ 10.
Take `CCOC(=O)c1cccc(-n2nc(C(C)C)cc2NC(=O)Nc2cccc3ccccc23)c1` [Example 332, ethyl 3-(3-isopropyl-5-[3-(naphthalen-1-yl)ureido]-1H-pyrazol-1-yl)benzoate]: the IC50 under setting [2] came to 0.05 µM.
